According to PubChem BioAssay AID1963848 (Molecular Pharmacology Branch, DTP, NCI, 2024):

Test system: 379773-124-R-J2-PDC spheroid viability
Experiment: Anticancer human tumor 379773-124-R-J2-PDC patient-derived endometrial carcinoma cell line growth inhibition [POLQ]
Conditions: spheroids with HUVEC and MSC; for IC50: curve of first compound; for viability, T/C: stronger effect = lower value
Summary of the method: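 Patient-derived tumour cells were co-cultured with HUVEC and mesenchymal stem cells as multicellular spheroids at 37 °C. They were treated with POLQ inhibitors (novobiocin, ART-558, RP6685) alone or combined with other agents. Top concentrations were at or near clinical Cmax (otherwise 10 microM; SN-38 at 1 microM), decreasing in half-log steps.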

[1] = second compound 0.0316 µM, first compound 0.0316 µM
[2] = second compound 0.0316 µM, first compound 0.1 µM
[3] = second compound 0.0316 µM, first compound 0.316 µM
[4] = second compound 0.0316 µM, first compound 1 µM
[5] = second compound 0.0316 µM, first compound 3.16 µM
[6] = second compound 0.0316 µM, first compound 10 µM
[7] = second compound 0.1 µM, first compound 0.0316 µM
[8] = second compound 0.1 µM, first compound 0.1 µM
[9] = second compound 0.1 µM, first compound 0.316 µM
[10] = second compound 0.1 µM, first compound 1 µM
[11] = second compound 0.1 µM, first compound 3.16 µM
[12] = second compound 0.1 µM, first compound 10 µM
[13] = second compound 0.316 µM, first compound 0.0316 µM
[14] = second compound 0.316 µM, first compound 0.1 µM
[15] = second compound 0.316 µM, first compound 0.316 µM
[16] = second compound 0.316 µM, first compound 1 µM
[17] = second compound 0.316 µM, first compound 3.16 µM
[18] = second compound 0.316 µM, first compound 10 µM
[19] = second compound 1 µM, first compound 0.0316 µM
[20] = second compound 1 µM, first compound 0.1 µM
[21] = second compound 1 µM, first compound 0.316 µM
[22] = second compound 1 µM, first compound 1 µM
[23] = second compound 1 µM, first compound 3.16 µM
[24] = second compound 1 µM, first compound 10 µM
[25] = second compound 3.16 µM, first compound 0.0316 µM
[26] = second compound 3.16 µM, first compound 0.1 µM
[27] = second compound 3.16 µM, first compound 0.316 µM
[28] = second compound 3.16 µM, first compound 1 µM
[29] = second compound 3.16 µM, first compound 3.16 µM
[30] = second compound 3.16 µM, first compound 10 µM
[31] = second compound 10 µM, first compound 0.0316 µM
[32] = second compound 10 µM, first compound 0.1 µM
[33] = second compound 10 µM, first compound 0.316 µM
[34] = second compound 10 µM, first compound 1 µM
[35] = second compound 10 µM, first compound 3.16 µM
[36] = second compound 10 µM, first compound 10 µM
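Also: spheroids exposed to drugs for seven days before readout.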
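For viability, T/C in this document: percent viability relative to DMSO vehicle control taken as 100%.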

CNCc1ccc(-c2[nH]c3cc(F)cc4c3c2CCNC4=O)cc1 + Cc1cccc(N(C)C(=O)C2C(O)CCN2c2nc(C)cc(C(F)(F)F)c2C#N)c1
IC50 (second compound 0.0316 µM): > 10 µM
IC50 (second compound 0.1 µM): > 10 µM
IC50 (second compound 0.316 µM): > 10 µM
IC50 (second compound 1 µM): > 10 µM
IC50 (second compound 3.16 µM): > 10 µM
IC50 (second compound 10 µM): > 10 µM
viability, T/C [1]: 89.5%
viability, T/C [2]: 74.2%
viability, T/C [3]: 88.5%
viability, T/C [4]: 83.2%
viability, T/C [5]: 72.7%
viability, T/C [6]: 58.3%
viability, T/C [7]: 90.4%
viability, T/C [8]: 85.8%
viability, T/C [9]: 75.2%
viability, T/C [10]: 79.5%
viability, T/C [11]: 80.4%
viability, T/C [12]: 66.9%
viability, T/C [13]: 93.3%
viability, T/C [14]: 77.5%
viability, T/C [15]: 83.1%
viability, T/C [16]: 82.9%
viability, T/C [17]: 75.8%
viability, T/C [18]: 57.6%
viability, T/C [19]: 78.2%
viability, T/C [20]: 79.7%
viability, T/C [21]: 87.1%
viability, T/C [22]: 73.5%
viability, T/C [23]: 73.8%
viability, T/C [24]: 60.3%
viability, T/C [25]: 86.5%
viability, T/C [26]: 73.6%
viability, T/C [27]: 79.8%
viability, T/C [28]: 83.1%
viability, T/C [29]: 82%
viability, T/C [30]: 54.8%
viability, T/C [31]: 74.8%
viability, T/C [32]: 70.3%
viability, T/C [33]: 72.7%
viability, T/C [34]: 69.6%
viability, T/C [35]: 77.3%
viability, T/C [36]: 61.1%

COc1cccc2c1C(=O)c1c(O)c3c(c(O)c1C2=O)CC(O)(C(=O)CO)CC3OC1CC(N)C(O)C(C)O1 (stereo not drawn) + Nc1ccc(C#CCN(C(=O)Cc2ncc(C(F)(F)F)cc2C(F)(F)F)c2ccc(F)cc2)nn1
IC50 (second compound 0.0316 µM): 0.0783 µM
IC50 (second compound 0.1 µM): 0.0759 µM
IC50 (second compound 0.316 µM): 0.0719 µM
IC50 (second compound 1 µM): 0.0655 µM
IC50 (second compound 3.16 µM): 0.0734 µM
IC50 (second compound 10 µM): 0.0554 µM
viability, T/C [1]: 84.7%
viability, T/C [2]: 41.7%
viability, T/C [3]: 11.1%
viability, T/C [4]: 12.6%
viability, T/C [5]: 1.86%
viability, T/C [6]: 0.23%
viability, T/C [7]: 87.7%
viability, T/C [8]: 37.4%
viability, T/C [9]: 15.2%
viability, T/C [10]: 11.9%
viability, T/C [11]: 2.13%
viability, T/C [12]: 0.18%
viability, T/C [13]: 90.3%
viability, T/C [14]: 33.3%
viability, T/C [15]: 11.8%
viability, T/C [16]: 10.2%
viability, T/C [17]: 1.88%
viability, T/C [18]: 0.18%
viability, T/C [19]: 89.8%
viability, T/C [20]: 26%
viability, T/C [21]: 9.42%
viability, T/C [22]: 10.8%
viability, T/C [23]: 1.71%
viability, T/C [24]: 0.23%
viability, T/C [25]: 85.1%
viability, T/C [26]: 37.7%
viability, T/C [27]: 11.3%
viability, T/C [28]: 10.1%
viability, T/C [29]: 3.23%
viability, T/C [30]: 1.06%
viability, T/C [31]: 71.2%
viability, T/C [32]: 26.8%
viability, T/C [33]: 10.9%
viability, T/C [34]: 9.24%
viability, T/C [35]: 1.29%
viability, T/C [36]: 0.25%

C#Cc1c(F)ccc2cc(O)cc(-c3ncc4c(N5CC6CCC(C5)N6)nc(OCC56CCCN5CC(F)C6)nc4c3F)c12 (stereo not drawn) + COC1C(OC(N)=O)C(O)C(Oc2ccc3c(O)c(NC(=O)c4ccc(O)c(CC=C(C)C)c4)c(=O)oc3c2C)OC1(C)C
IC50 (second compound 0.0316 µM): > 10 µM
IC50 (second compound 0.1 µM): > 10 µM
IC50 (second compound 0.316 µM): > 10 µM
IC50 (second compound 1 µM): > 10 µM
IC50 (second compound 3.16 µM): > 10 µM
IC50 (second compound 10 µM): > 10 µM
viability, T/C [1]: 89%
viability, T/C [2]: 85.8%
viability, T/C [3]: 84.4%
viability, T/C [4]: 81%
viability, T/C [5]: 97.9%
viability, T/C [6]: 88.6%
viability, T/C [7]: 95.8%
viability, T/C [8]: 78.2%
viability, T/C [9]: 92.1%
viability, T/C [10]: 75.5%
viability, T/C [11]: 77.4%
viability, T/C [12]: 95%
viability, T/C [13]: 91%
viability, T/C [14]: 83.9%
viability, T/C [15]: 79.7%
viability, T/C [16]: 84.5%
viability, T/C [17]: 87.6%
viability, T/C [18]: 93.4%
viability, T/C [19]: 80.8%
viability, T/C [20]: 84.3%
viability, T/C [21]: 89.9%
viability, T/C [22]: 86.8%
viability, T/C [23]: 75%
viability, T/C [24]: 93.9%
viability, T/C [25]: 78.5%
viability, T/C [26]: 81.7%
viability, T/C [27]: 90.2%
viability, T/C [28]: 78.5%
viability, T/C [29]: 89.7%
viability, T/C [30]: 96.8%
viability, T/C [31]: 75.3%
viability, T/C [32]: 85.8%
viability, T/C [33]: 103%
viability, T/C [34]: 79.4%
viability, T/C [35]: 75.8%
viability, T/C [36]: 106%

CC(C)n1c(=O)n(C)c2cnc3cc(F)c(-c4ccc(OCCCN5CCCCC5)nc4)cc3c21 + Nc1ccc(C#CCN(C(=O)Cc2ncc(C(F)(F)F)cc2C(F)(F)F)c2ccc(F)cc2)nn1
IC50 (second compound 0.0316 µM): > 10 µM
IC50 (second compound 0.1 µM): > 10 µM
IC50 (second compound 0.316 µM): > 10 µM
IC50 (second compound 1 µM): > 10 µM
IC50 (second compound 3.16 µM): > 10 µM
IC50 (second compound 10 µM): > 10 µM
viability, T/C [1]: 95.4%
viability, T/C [2]: 96.4%
viability, T/C [3]: 83.3%
viability, T/C [4]: 94.3%
viability, T/C [5]: 81.7%
viability, T/C [6]: 72.6%
viability, T/C [7]: 97.9%
viability, T/C [8]: 92.6%
viability, T/C [9]: 85.3%
viability, T/C [10]: 87.6%
viability, T/C [11]: 78.9%
viability, T/C [12]: 73.6%
viability, T/C [13]: 90.4%
viability, T/C [14]: 96.7%
viability, T/C [15]: 84.7%
viability, T/C [16]: 88.8%
viability, T/C [17]: 81.4%
viability, T/C [18]: 74.9%
viability, T/C [19]: 98.5%
viability, T/C [20]: 98.2%
viability, T/C [21]: 87%
viability, T/C [22]: 94.5%
viability, T/C [23]: 84.7%
viability, T/C [24]: 77.8%
viability, T/C [25]: 92.6%
viability, T/C [26]: 87.5%
viability, T/C [27]: 82.1%
viability, T/C [28]: 80.7%
viability, T/C [29]: 85.9%
viability, T/C [30]: 85.3%
viability, T/C [31]: 85.5%
viability, T/C [32]: 89.7%
viability, T/C [33]: 77%
viability, T/C [34]: 77.8%
viability, T/C [35]: 75.2%
viability, T/C [36]: 73.8%
